Measurements published in patent US20020045268A1, “MEASURING ANALYTES WITH METAL-LIGAND COMPLEX PROBES” (priority 1997, published 2002).
Entries after “also recorded” stand apart in the source; their conditions may differ.

Columns and labels:
Type in all cases: physicochemical
[1] = pH-dependent intensity, phase and modulation data of FIG. 15 and emission spectrum of the dcbpy complex; conditions: relative to Ru(bpy)3
Excerpt: FIG. 15 graphically depicts data in connection with the metal-ligand complex [Ru(bpy)2 (dcbpy)]Cl4 showing pH-dependent intensity, phase and modulation data.
The emission shift to longer wavelengths at low pH (FIG. 2) seems to be generally understandable in terms of the electronic properties of the excited MLCs. The long wavelength emission is thought to result from a metal-to-ligand charge transfer (MLCT) state in which an electron is donated from Ru to the ligand. The protonated form of deabpy is probably a better electron acceptor, lowering the energy of the MLCT state, shifting the emission to longer wavelengths and thereby decreasing the lifetime. […] Terpetschnig, E., H. Szmacinski, H. Malak and J. R. Lakowicz. Biophys. J., 68:342-350; Fluorescence Polarization Immunoassay of a High Molecular Weight Antigen Based on a Long-Lifetime Ru-Ligand Complex (1995). Terpetschnig, E., H. Szmacinski and J. R. Lakowicz. Anal. Biochem., 227:140-147].
The dcbpy ligand is probably a better electron acceptor than bpy. […] It could be used at a pH in the range of pH 2 to 5.

[2] = pH-dependent fluorescence emission spectra and intensities in buffers
Experimental: (§1) Ru(bpy)2 (deabpy) (PF6)2 solutions at different pH value were prepared by dissolving equal amount of aqueous Ru(bpy)2 (deabpy) (PF6)2 in different buffer solutions. From pH 2 to pH 4.7, we used citrate buffer; from pH 4.8 to pH 6.3 we used acetate buffer; from pH 6.4 to pH 7.8 we used phosphate buffer; from pH 7.8 to pH 9.0 we used tris buffer, from pH 9.2 to pH 11 we used carbonate/bicarbonate buffer, from pH 11 to pH 12 we used dibasic sodium phosphate/sodium hydroxide buffer. Unless stated otherwise the buffer concentrations were 20 mM and contained 0.1 M potassium chloride to maintain ionic strength.
The fluorescence emission spectra were measured using Aminco Bowman Series AB2 Luminescence Spectrometer with the excitation wavelength of 414 nm. […] The emission intensity ratios (620 nm/650 nm) of the different sample were also recorded.

[3] = frequency-domain intensity decay (lifetime) measurements, single and global multi-exponential analysis
Excerpt: For the phase/modulation measurements (FIGS. 6-9), an air-cooled Argon ion laser (output at 488 nm) was used as the excitation light source, and the modulation frequency was set at 700 kHz. On the emission side, a long-wave pass filter was used to collect the fluorescence with wavelength longer than 600 nm. The reference solution used here was an aqueous solution of Texas Red with a reference lifetime of 4 ns. For the lifetime measurements, we used the same instrumentation and reference solution, and 23 different modulation frequencies ranging from 11 kHz to 2 MHZ.
Single and multi-exponential intensity decays were recovered from the multi-frequency data as described previously [see, Construction and Performance of a Variable-Frequency Phase-Modulation Fluorometer (1985). Lakowicz, J. R. and B. P. Maliwal. Biophys. Chem., 21:61-78; Frequency-Domain Fluorescence Spectroscopy (1991) in Topics in Fluorescence Spectroscopy, Vol. 1: Techniques, (Lakowicz, J. R., Ed.). Plenum Press, New York, pp. 293-355]. The data were analyzed globally in terms of the multi-exponential model [formula]
where Ik(t) are the intensity decays at each pH (k) value, Ti are the decay times and αik are the amplitudes. For the global analysis we assumed that the αik values would depend on pH, but that the two lifetimes would be independent of pH. The goodness-of-fit was judged by the usual XR^2 criterion with assumed uncertainties in phase δp=0.2° and modulation δm=0.005.

[4] = pH-dependent absorption at 450 nm (ground state pKa); conditions: from changes in absorption at 450 nm
Experimental: Chemicals and solvents were purchased from Aldrich and used without further purification. Absorption spectra were measured using a Perkin Elmer lambda 6 UV/Vis spectrophotometer. Observed were two isosbestic points at 414 nm and 475 nm. The absorbance at 450 nm of different samples were measured to obtain the ground state pKa.
as §1

## O=C(O)c1ccnc(-c2cc(C(=O)O)ccn2)c1.[Ru+2].c1ccc(-c2ccccn2)nc1.c1ccc(-c2ccccn2)nc1 [[Ru(dcbpy)(bpy)2]^2+]
[1]
  emission spectrum shift: red shift

## CCN(CC)Cc1ccnc(-c2cc(CN(CC)CC)ccn2)c1.[Ru+2].c1ccc(-c2ccccn2)nc1.c1ccc(-c2ccccn2)nc1 [[Ru(deabpy)(bpy)2]^2+]
[2]; 20, 50 and 100 mM phosphate buffer
  dependence of apparent pKa on ionic strength / buffer concentration: not found to be dependent on ionic strength; also recorded: same apparent pKa values
[2]; acidic sample (low pH), excitation 414 nm
  emission maximum: 650 nm
[2]; as pH increases from 2.52 to 11.8
  increase of emission spectrum: about 3 fold
[2]; basic sample, excitation 414 nm
  emission maximum: 620 nm
[2]; pH-dependent fluorescence intensities, excitation 414 nm
  apparent pKa observed by fluorescence: ~7.5
[3]; high pH
  mean decay time: ~390 ns
[3]; low pH, protonated amino groups
  mean decay time: ~240 ns
[3]; pH 2.4
  α1, amplitude of 235 ns component, global analysis: 0.964
  α2, amplitude of 380 ns component, global analysis: 0.036
  τ2 (ns), global analysis: 380 ns
  τi (ns), global analysis: 235 ns
[3]; pH 2.40
  τ(ns), single decay time analysis: 236 ns
[3]; pH 5.8
  α1, amplitude of 235 ns component, global analysis: 0.893
  α2, amplitude of 380 ns component, global analysis: 0.107
  τ2 (ns), global analysis: 380 ns
  τi (ns), global analysis: 235 ns
[3]; pH 5.89
  τ(ns), single decay time analysis: 252 ns
[3]; pH 6.91
  α1, amplitude of 235 ns component, global analysis: 0.828
  α2, amplitude of 380 ns component, global analysis: 0.172
  τ2 (ns), global analysis: 380 ns
  τ(ns), single decay time analysis: 262 ns
  τi (ns), global analysis: 235 ns
[3]; pH 7.45
  α1, amplitude of 235 ns component, global analysis: 0.687
  α2, amplitude of 380 ns component, global analysis: 0.313
  τ2 (ns), global analysis: 380 ns
  τ(ns), single decay time analysis: 284 ns
  τi (ns), global analysis: 235 ns
[3]; pH 8.02
  α1, amplitude of 235 ns component, global analysis: 0.380
  α2, amplitude of 380 ns component, global analysis: 0.620
  τ2 (ns), global analysis: 380 ns
  τ(ns), single decay time analysis: 327 ns
  τi (ns), global analysis: 235 ns
[3]; pH 13.5
  α1, amplitude of 235 ns component, global analysis: 0
  α2, amplitude of 380 ns component, global analysis: 1.0
  τ2 (ns), global analysis: 380 ns
  τ(ns), single decay time analysis: 392 ns
  τi (ns), global analysis: 235 ns
[3]; protonated form
  decay time, global analysis: 235 ns
[3]; unprotonated form
  decay time, global analysis: 380 ns
[4]
  ground state pKa: 7.14
